Data: patent publication US20220031680A1, “Donecopride As Neuroprotective Agent In the Treatment of Neurodegenerative Diseases” (priority 2018, published 2022)
Marks after values point to notes of the source that are not given here.

System: rat primary hippocampal neurons injured with Aβ 1-42
Test: Survival and neurite network of MAP-2 neurons in primary hippocampal neurons injured with Aβ1-42
Format: cell-based
Settings: for MAP-2 neurite network (% of control) / MAP-2 neurons (% of control) / Neurite network/MAP-2 neurons (% of control): Aβ 1-42 (20 μM) 24 h; for MAP-2 neurons (% of control): 1 h preincubation; for Neurite network/MAP-2 neurons (% of control): neurite network normalized by number of neurons
Procedure: Rat hippocampal neurons were cultured as described by Callizot et al. (2013) J. Neurosci. Res. 91706-716. Pregnant female rats of 17 days gestation (Rats Wistar; Janvier Labs France) were killed using a deep anesthesia with CO2 chamber followed by a cervical dislocation. Then, fetuses were removed from the uterus and immediately placed in ice-cold L15 Leibovitz medium with a 2% penicillin (10,000 U/ml) and streptomycin (10 mg/ml) solution (PS) and 1% bovine serum albumin (BSA). Hippocampal neurons were treated for 20 min at 37° C. with a trypsin-EDTA solution at a final concentration of 0.05% trypsin and 0.02% EDTA. The dissociation was stopped by adding Dulbecco's modified Eagle's medium (DMEM) with 4.5 g/l of glucose, containing DNAse I grade II (final concentration 0.5 mg/ml) and 10% fetal calf serum (FCS). Cells were mechanically dissociated by three forced passages through the tip of a 10-ml pipette and then centrifuged at 515×g for 10 min at 4° C. The supernatant was discarded, and the pellet was resuspended in a defined culture medium consisting of Neurobasal medium with a 2% solution of B27 supplement, 2 mmol/l of L-glutamine, 2% of PS solution, and 10 ng/ml of brain-derived neurotrophic factor (BDNF). Viable cells were counted in a Neubauer cytometer, using the trypan blue exclusion test. Cells were seeded at a density of 20,000 per well in 96-well plates precoated with poly-L-lysine and cultured at 37° C. in an air (95%)-CO2 (5%) incubator. The medium was changed every 2 days.
The hippocampal neurons were exposed with Aβ solutions (see below) after 17 days of culture. The Aβ1-42 preparation was done following the procedure described by Callizot et al. (2013) J. Neurosci. Res. 91706-716. Briefly, Aβ1-42 peptide was dissolved in the defined culture medium mentioned above, at an initial concentration of 40 μM. This solution was gently agitated for 3 days at 37° C. in the dark and immediately used after being properly diluted in culture medium to the concentrations used (20 μM (plate 1) or 2.5 μM (plate 2) corresponding to 2 μM or 0.25 μM of oligomers (AβO) respectively).
Donecopride fumarate was solved in culture medium and preincubated 1 h before Aβ application. Aβ1-42 preparation was added to a final concentration of 20 or 2.5 μM (=2 μM or 0.25 μM of AβO, evaluated by automatic Western Blot) diluted in control medium in presence of Donecopride.
Donecopride fumarate (Donecopride) was tested on one culture in a 96 well plate (6 wells per conditions). The compound was preincubated one hour before Aβ application. The following conditions were assessed:
24 hours after intoxication, the hippocampal neurons were fixed by a cold solution of ethanol (95%) and acetic acid (5%) for 5 min at −20° C. After permeabilization with 0.1% of saponin, cells were incubated for 2 h with:
a) chicken polyclonal antibody anti microtubule-associated-protein 2 (MAP-2), diluted at 1/1000 in PBS containing 1% fetal calf serum and 0.1% of saponin (this antibody allows the specific staining of neuronal cell bodies and neurites; and allow the study of neuronal cell death and neurite network).
For each condition, 30 pictures (representative of the whole well area) per well were taken using ImageXpress (Molecular Devices) at 20× magnification. All images were taken with the same acquisition parameters. Analyses were performed automatically by using Custom Module Editor (Molecular Devices).
The following endpoints were assessed: • Total number of neurons (neuron survival, number of MAP-2 positive neurons) • Neurite network (in μm of MAP-2 positive neurons) • area of tau in neurons (μm^2, overlapping with MAP-2 positive neurons).
All values are expressed as mean+/−SEM. Statistical analysis was performed by one-way ANOVA, followed by PLSD Fisher's test, p<0.05 were considered significant.
Rat hippocampal neurons were cultured as described by Callizot et al. (2013) J. Neurosci. Res. 91:706-716. […]

[1] = Aβ1-42 injured hippocampal neurons, Example 4

COc1cc(N)c(Cl)cc1C(=O)CCC1CCN(CC2CCCCC2)CC1 [Donecopride]
MAP-2 neurite network (% of control) (1 nM): 64 % of control | MAP-2 neurons (% of control) (1 nM): 70 % of control | Neurite network/MAP-2 neurons (% of control) (1 nM): 90 % of control | MAP-2 neurite network (% of control) (5 nM): 69 % of control | MAP-2 neurons (% of control) (5 nM): 69 % of control | Neurite network/MAP-2 neurons (% of control) (5 nM): 99 % of control | MAP-2 neurite network (% of control) (10 nM): 68 % of control | MAP-2 neurons (% of control) (10 nM): 73 % of control | Neurite network/MAP-2 neurons (% of control) (10 nM): 96 % of control | MAP-2 neurite network (% of control) (50 nM): 71* % of control | MAP-2 neurons (% of control) (50 nM): 74 % of control | Neurite network/MAP-2 neurons (% of control) (50 nM): 91 % of control | MAP-2 neurite network (% of control) (100 nM): 73* % of control | MAP-2 neurons (% of control) (100 nM): 78* % of control | Neurite network/MAP-2 neurons (% of control) (100 nM): 93 % of control | MAP-2 neurite network (% of control) (500 nM): 79* % of control | MAP-2 neurons (% of control) (500 nM): 79* % of control | Neurite network/MAP-2 neurons (% of control) (500 nM): 100 % of control | MAP-2 neurite network (% of control) (1 μM): 76* % of control | MAP-2 neurons (% of control) (1 μM): 62* % of control | Neurite network/MAP-2 neurons (% of control) (1 μM): 124* % of control

COc1cc2c(cc1OC)C(=O)C(CC1CCN(Cc3ccccc3)CC1)C2 (stereo not drawn) [Donepezil, reference compound]
MAP-2 neurite network (% of control) (1 μM): 92* % of control | MAP-2 neurons (% of control) (1 μM): 82* % of control | Neurite network/MAP-2 neurons (% of control) (1 μM): 113* % of control

COc1cc(N)c(F)cc1C(=O)CCC1CCN(CC2CCCCC2)CC1 [Flucopride]
neuroprotective effect (survival, neurite and synaptic network) [1]: strong neuroprotective effect | concentration of maximum effect on survival and neurite network (Aβ1-42 injured hippocampal neurons, bell shaped curve (FIGS. 1A-C)): 100 nM

COc1cc(N)c(F)cc1C(=O)CCC1CCN(CC2CCCC2)CC1 [MR33583]
active concentrations (neuroprotective effect) (Aβ1-42 injured hippocampal neurons (FIGS. 7 and 8)): 50 to 500 nM | effect on neurite network [1]: strong effect on neurite network was observed at almost every tested dose | neuroprotective effect (survival, neurite and synaptic network) [1]: neuroprotective effect following a bell shaped curved

COc1cc(N)c(F)cc1C(=O)CCC1CCN(CC2CCCCCC2)CC1 [MR36014]
neuroprotective effect (survival, neurite network, Tau hyperphosphorylation) (pM doses, Aβ1-42 injured hippocampal neurons, Example 5 (FIG. 11)): neuroprotective effect was also observed at pM doses
